Data: PMC8359396, “Pharmacological validation of TDO as a target for Parkinson’s disease” (The Febs Journal, 2021)

Tests used:
TDO activity in vivo = experiment: Trp and Kyn levels in plasma and brain of the PK studies (LC‐MS/MS); parameters: species or system male C57BL/6NCrl mice; conditions: mice, single p.o. 100 mg·kg^−1
[1] = system: rotenone‐induced mouse model of PD; experiment: Microglia (Iba1) volume and occupied space in substantia nigra, iDISCO; conditions: highest dose (100 mg·kg^−1); P < 0.05
[2] = system: rotenone‐induced mouse model of PD; experiment: TH‐positive (dopaminergic) cells in substantia nigra, iDISCO; type: in vivo, male C57BL/6NCrl mice; conditions: rotenone mice; highest dose (100 mg·kg^−1); P < 0.01
[3] = molecular target: hTDO2‐overexpressing HEK‐293 cells (HEK‐hTDO) (Homo sapiens, UniProt P48775); experiment: Cell-based TDO assay, HEK‐hTDO cells (NFK Green)
Sequence of hTDO2‐overexpressing HEK‐293 cells (HEK‐hTDO) (P48775 whole entry): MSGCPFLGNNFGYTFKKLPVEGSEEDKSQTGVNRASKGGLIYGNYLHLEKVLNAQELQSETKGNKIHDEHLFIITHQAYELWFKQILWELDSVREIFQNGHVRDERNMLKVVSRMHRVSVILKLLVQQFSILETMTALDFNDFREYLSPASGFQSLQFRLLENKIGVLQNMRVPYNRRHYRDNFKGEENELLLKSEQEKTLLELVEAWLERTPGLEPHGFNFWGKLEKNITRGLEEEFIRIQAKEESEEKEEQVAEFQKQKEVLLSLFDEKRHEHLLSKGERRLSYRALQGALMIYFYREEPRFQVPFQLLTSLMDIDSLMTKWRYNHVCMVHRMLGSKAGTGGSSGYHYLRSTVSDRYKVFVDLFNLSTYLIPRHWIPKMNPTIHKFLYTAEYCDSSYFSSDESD

[4] = system: rotenone‐induced mouse model of PD; experiment: α‐Synuclein immunofluorescent staining of colon in rotenone model; type: in vivo, male C57BL/6NCrl mice; conditions: rotenone mice; all doses: 25 mg·kg^−1, P < 0.05; 50 and 100 mg·kg^−1, P < 0.01
Method: (§1) Parkinson’s disease is associated with the activation of glial cells in the enteric nervous system. Furthermore, aggregates of α‐synuclein have been observed in the enteric nervous system of PD patients. The expression of glial fibrillary acidic protein (GFAP), a marker of enteric glial cells, and of α‐synuclein was determined by immunofluorescent staining of fixed sections of the colons of the sacrificed mice.
(§2) Expression of GFAP and α‐synuclein in colonic tissue was determined using confocal microscopy (Leica SP8). The colons of the mice were embedded in paraffin. Sections of 15 µm were cut and incubated with 0.3% (v/v) H2O2 for 30 min, rehydrated and incubated with citrate buffer. Following blocking with serum, the sections were incubated overnight with rabbit anti‐α‐synuclein (Millipore, cat. no. AB5038; Burlington, MA, USA) at a dilution of 1 : 1000, or rabbit anti‐GFAP (Dako, cat. no. Z0334), 1 : 1000. After incubation with Alexa® 488‐labeled donkey anti‐rabbit secondary antibody, the slides were mounted using Vectashield® medium for fluorescence with DAPI (Vector Laboratories, cat. no. H‐1000; Burlingame, CA, USA).
(§3) Immunofluorescence images were made using a Keyence BZ‐9000 microscope. GFAP and α‐synuclein staining were quantified by calculation of the corrected total fluorescence (CTF) with the formula: integrated density – (area × mean fluorescence of background reading).

[5] = system: rotenone‐induced mouse model of PD; experiment: Rotarod test in rotenone model; type: in vivo, male C57BL/6NCrl mice; conditions: two highest doses p.o. once daily: 50 mg·kg^−1, P < 0.01 at day 35; 100 mg·kg^−1, P < 0.01
Method: To investigate the effects of TDO inhibition, both compounds were orally administered once daily from day 7 after induction of the PD model (Fig. 5A). […] In this test, the time spent on an accelerating wheel was used to analyze motor function.
Food and water was provided ad libitum.
Motor function was assessed in the rotarod test by placing mice on an accelerating rod with speeds starting at 2 rpm and gradually increasing to 20 rpm. The latency to fall was recorded for a maximum of 300 s. Baseline motor function was tested seven days after surgery, and subsequently, motor function was tested every seven days until day 42.

[6] = system: rotenone‐induced mouse model of PD; experiment: GFAP immunofluorescent staining of colon in rotenone model; type: in vivo, male C57BL/6NCrl mice; conditions: rotenone mice; highest two doses (50 and 100 mg·kg^−1); P < 0.0001 for both doses
Method: as §1, §2, §3

[7] = system: rotenone‐induced mouse model of PD; experiment: Colon length in rotenone model; conditions: rotenone mice; highest dose (100 mg·kg^−1); P < 0.05
mouse TDO (mTDO) = mouse TDO (mTDO) (Mus musculus, UniProt P48776); experiment: TDO biochemical assay (NFK Green), mTDO
Sequence of mouse TDO (mTDO) (P48776 whole entry): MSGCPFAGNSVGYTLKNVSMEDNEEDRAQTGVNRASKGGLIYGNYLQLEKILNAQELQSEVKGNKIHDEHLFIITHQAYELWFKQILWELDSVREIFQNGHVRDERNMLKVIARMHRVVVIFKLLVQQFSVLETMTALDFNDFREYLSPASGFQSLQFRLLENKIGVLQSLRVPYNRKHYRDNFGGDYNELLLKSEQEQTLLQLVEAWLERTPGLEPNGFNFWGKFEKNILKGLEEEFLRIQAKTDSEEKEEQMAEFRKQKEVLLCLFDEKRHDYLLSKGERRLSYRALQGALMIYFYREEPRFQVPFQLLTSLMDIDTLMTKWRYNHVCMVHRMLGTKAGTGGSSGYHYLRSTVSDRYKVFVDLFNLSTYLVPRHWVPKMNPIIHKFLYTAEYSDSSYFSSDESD

[8] = In vivo pharmacokinetics and brain penetration; conditions: for AUC: AUCplasma; for Cmax: plasma; for half-life: t½; for Kp uu: Kpuu (unbound brain‐to‐plasma partition coefficient)
[9] = molecular target: human IDO1‐overexpressing HEK‐293 cells (HEK‐hIDO1) (Homo sapiens, UniProt P14902); experiment: Cell-based IDO1 assay, HEK‐hIDO1 cells (NFK Green); conditions: cell-based assay; read-out: Potency (IC50) HEK‐hIDO1 (converted)
Sequence of human IDO1‐overexpressing HEK‐293 cells (HEK‐hIDO1) (P14902 whole entry): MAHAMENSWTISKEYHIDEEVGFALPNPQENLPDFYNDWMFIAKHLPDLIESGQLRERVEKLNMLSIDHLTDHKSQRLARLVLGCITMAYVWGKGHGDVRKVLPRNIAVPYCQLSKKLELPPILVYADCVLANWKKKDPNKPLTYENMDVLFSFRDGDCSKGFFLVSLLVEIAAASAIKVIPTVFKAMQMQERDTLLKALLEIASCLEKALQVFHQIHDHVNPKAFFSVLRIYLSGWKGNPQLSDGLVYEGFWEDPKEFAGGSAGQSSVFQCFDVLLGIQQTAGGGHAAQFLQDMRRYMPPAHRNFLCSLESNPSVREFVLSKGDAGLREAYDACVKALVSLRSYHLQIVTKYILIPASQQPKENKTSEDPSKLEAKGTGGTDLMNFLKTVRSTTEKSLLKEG
Method: Inhibition of Trp‐to‐NFK conversion in HEK‐hTDO, HEK‐hIDO1, and SW48 cells was measured with NFK Green, essentially as described previously for cancer cell lines. Cell density, incubation time, and Trp concentrations were optimized. For the TDO assay with HEK‐hTDO and SW48 cells, 200 µM Trp was added to the culture medium. No additional Trp was added for the IDO1 assay with HEK‐hIDO1 cells. The incubation time with compound was 42 h for the assays with HEK‐hTDO and HEK‐hIDO1 cells, and 18 h for the assay with SW48 cells.

SW48 (hTDO) = SW48 (hTDO) (Homo sapiens, UniProt P48775); experiment: cell-based
Sequence of SW48 (hTDO) (P48775 whole entry): as the sequence (P48775 whole entry) above

[10] = system: any cell line used in this study; experiment: Cell viability assay (ATPlite 1Step); conditions: in parallel with the cell‐based NFK Green assays
Method: In parallel with the cell‐based NFK Green assays, the cytotoxicity of the compounds was determined in cell viability assays using ATPlite™ 1Step (PerkinElmer, Groningen, The Netherlands).

[11] = system: rotenone‐induced mouse model of PD; experiment: Intestinal transit of Evans blue in rotenone model; type: in vivo, male C57BL/6NCrl mice; conditions: highest dose (100 mg·kg^−1), P < 0.0001
Method: The dye was injected intragastrically, thirty minutes before the sacrifice of the mice. Intestinal transit was measured as the distance travelled by the dye from the pylorus to the most distal part of the colon.

recombinant hIDO1 = recombinant hIDO1 (Homo sapiens, UniProt P14902); experiment: IDO1 biochemical assay (NFK Green)
Sequence of recombinant hIDO1 (P14902 whole entry): as the sequence (P14902 whole entry) above

[12] = male, C57BL/6NCrl, mouse, in vivo, iv, 10 mg, mice, 10 mg∙kg^−1
[13] = male, C57BL/6NCrl, mouse, in vivo, po, 100 mg
[14] = male, C57BL/6NCrl, mouse, in vivo, po, 100 mg, mice, 5‐day p.o., 100 mg∙kg^−1
[15] = male, C57BL/6NCrl, mouse, in vivo, po, 100 mg, mice, single p.o., 100 mg∙kg^−1

**Q.** For C[C@@H](CO)NC(=O)c1ccc(-c2c[nH]c3cc(F)ccc23)cc1 [NTRC 3531‐0], which “Kyn levels in plasma at early timepoints” value (TDO activity in vivo; 0.25 and 0.5 h, no statistical significance) is on record?
**A.** Its value is “slightly decreased”.

**Q.** What about the “Kyn levels in plasma, subsequent timepoints” value (TDO activity in vivo; 1 and 2 h, P < 0.05) of the same compound?
**A.** The value was “increased”.

**Q.** And the “concentration of Trp in plasma compared to vehicle” value (TDO activity in vivo; 1 h P < 0.01, 2 h P < 0.0001, 7 h P < 0.01)?
**A.** Its value is “increase”.

**Q.** And the “Kyn levels in brain” value (TDO activity in vivo; 12 h P < 0.01, 24 h P < 0.05)?
**A.** Its value is “increased”.

**Q.** What about the “concentration of Trp in brain compared to vehicle” value (TDO activity in vivo; P < 0.0001 at 1, 12 and 24 h) of the same compound?
**A.** Its value is “increase”.

**Q.** What about the “mean microglia volume in the SN of rotenone‐treated mice” value [1] of the same compound?
**A.** The value was “reduced the mean microglia volume”.

**Q.** And the “rotenone‐induced loss of TH‐positive cells in the SN” value [2]?
**A.** Its value is “decreased the rotenone‐induced loss of TH‐positive cells”.

**Q.** What about the IC50 [3] of the same compound?
**A.** Its IC50 is 816 nM.

**Q.** And the “selectivity for hTDO over hIDO1, HEK‐293 cell‐based assays” value [3]?
**A.** Its value is “at least 25 times”.

**Q.** What about the IC90 ([3]; HEK293) of the same compound?
**A.** The IC90 was 2500 nM.

**Q.** And the “expression of α‐synuclein in the enteric plexus” value [4]?
**A.** Its value is “decrease in the expression of α‐synuclein”.

**Q.** And the “motor function (rotarod) of rotenone‐treated mice” value [5]?
**A.** Its value is “significantly improved motor function”.

**Q.** And the “GFAP staining in colon” value [6]?
**A.** Its value is “decrease of GFAP staining”.

**Q.** What about the “colon length (rotenone‐induced intestinal inflammatory response)” value [7] of the same compound?
**A.** Its value is “reduced the rotenone‐induced intestinal inflammatory response”.

**Q.** What about the IC50 (mouse TDO (mTDO)) of the same compound?
**A.** Its IC50 is 846 nM.

**Q.** And the bioavailability ([8]; male, C57BL/6NCrl, mouse, in vivo, 100 mg/kg, F (oral bioavailability), mice, single p.o. 100 mg∙kg^−1 compared with single i.v. 10 mg∙kg^−1)?
**A.** Its bioavailability is 22%.

**Q.** And the AUC [8, 12]?
**A.** Its AUC is 93.2 µM·h.

**Q.** And the Cmax [8, 12]?
**A.** The Cmax was 56.5 µM.

**Q.** And the half-life [8, 12]?
**A.** Its half-life is 54.2 min.

**Q.** And the Kp [8, 13]?
**A.** The Kp was 0.41.

**Q.** What about the Kp at 5 days [8, 13] of the same compound?
**A.** Its Kp at 5 days is 0.37.

**Q.** What about the AUC [8, 14] of the same compound?
**A.** Its AUC is 210 µM·h.

**Q.** And the AUC [8, 15]?
**A.** Its AUC is 207 µM·h.

**Q.** What about the Cmax [8, 14] of the same compound?
**A.** The Cmax was 33.2 µM.

**Q.** And the Cmax [8, 15]?
**A.** Its Cmax is 37.5 µM.

**Q.** What about the Kp uu [8, 14] of the same compound?
**A.** The Kp uu was 0.067.

**Q.** What about the Kp uu [8, 15] of the same compound?
**A.** The Kp uu was 0.074.

**Q.** What about the half-life [8, 14] of the same compound?
**A.** Its half-life is 188 min.

**Q.** What about the half-life [8, 15] of the same compound?
**A.** Its half-life is 149 min.

**Q.** And the AUCbrain ([8]; mice, 5‐day p.o., 100 mg∙kg^−1)?
**A.** Its AUCbrain is 77.0 µmol·h/L.

**Q.** What about the “F (oral bioavailability)” value ([8]; mice, single p.o. 100 mg∙kg^−1 compared with single i.v. 10 mg∙kg^−1) of the same compound?
**A.** Its value is 22.3%.

**Q.** What about the AUCbrain ([8]; mice, single p.o., 100 mg∙kg^−1) of the same compound?
**A.** Its AUCbrain is 84.5 µmol·h/L.

**Q.** What about the IC50 [9] of the same compound?
**A.** The IC50 was 20.7 µM.

**Q.** And the IC50 (SW48 (hTDO))?
**A.** The IC50 was 220 nM.

**Q.** And the cytotoxicity [10]?
**A.** Its cytotoxicity is “not cytotoxic”.

**Q.** What about the “intestinal transit of the PD mice” value [11] of the same compound?
**A.** The value was “improved the intestinal transit”.

**Q.** What about the “activity on hIDO1 in the biochemical assay” value (recombinant hIDO1; highest tested concentration 31.6 µM) of the same compound?
**A.** Its value is “inactive”.

**Q.** And the inhibition at 0.6 µM (recombinant hIDO1; read-out: inhibition hIDO1)?
**A.** Its inhibition at 0.6 µM is < 20%.
